# Data published in patent publication US8153809B2, “Dihydropyridone ureas as P2X7 modulators” (Roche Palo Alto LLC, priority 2008, dated 2012).
# Biological target: T1, P2X7 (UniProt Q99572)
# T1 sequence (Q99572 1-595): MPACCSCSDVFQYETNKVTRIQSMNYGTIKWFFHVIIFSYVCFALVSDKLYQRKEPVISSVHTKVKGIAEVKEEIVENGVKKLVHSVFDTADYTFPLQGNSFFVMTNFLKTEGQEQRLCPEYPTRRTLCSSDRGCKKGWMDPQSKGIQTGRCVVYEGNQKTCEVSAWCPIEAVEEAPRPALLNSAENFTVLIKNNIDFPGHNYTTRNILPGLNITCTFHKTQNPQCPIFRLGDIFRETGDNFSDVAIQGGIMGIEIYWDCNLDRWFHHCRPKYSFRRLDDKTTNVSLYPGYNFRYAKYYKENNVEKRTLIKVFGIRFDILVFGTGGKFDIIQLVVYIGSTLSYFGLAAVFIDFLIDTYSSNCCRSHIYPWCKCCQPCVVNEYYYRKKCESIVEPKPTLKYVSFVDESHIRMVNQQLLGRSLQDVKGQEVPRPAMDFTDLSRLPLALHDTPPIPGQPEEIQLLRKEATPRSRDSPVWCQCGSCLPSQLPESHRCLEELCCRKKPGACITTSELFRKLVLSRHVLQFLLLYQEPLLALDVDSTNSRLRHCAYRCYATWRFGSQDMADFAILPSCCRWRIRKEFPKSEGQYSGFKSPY
# Assay: pIC50 values for P2X7 (Table 1)
# Type: cell-based
# Method in brief: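 Fluo-3-loaded 1321N1 cells expressing human P2X7 or HEK293 cells expressing rat P2X7, preincubated 20 min at room temperature with antagonist in HBSS/Hepes/probenecid buffer with 2 mM CaCl2. BzATP agonist at 100 μM final (human) or 5 μM final (rat); fluorescence read 5 min, peak normalized to 5 μM ionomycin response.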
row,SMILES,pIC50
1,"O=C1C=CN(C(=O)Nc2cccc3ncccc23)[C@H](c2ccc(F)cc2)C1 [Compound 154, (S)-2-(4-Fluoro-phenyl)-4-oxo-3,4-dihydro-2H-pyridine-1-carboxylic acid quinolin-5-ylamide]",8.64
2,"O=C1C=CN(C(=O)Nc2cc(F)c(F)cc2Br)C(c2ccc(F)cc2)C1 (centres unmarked) [Compound 157, 2-(4-Fluoro-phenyl)-4-oxo-3,4-dihydro-2H-pyridine-1-carboxylic acid (2-bromo-4,5-difluoro-phenyl)-amide]",6.43

# The next lines start with the values.
row,pIC50,SMILES
1,7.12,"Cc1cc(F)c(F)cc1NC(=O)N1C=CC(=O)C[C@H]1c1ccc(F)cc1 [Compound 155, (S)-2-(4-Fluoro-phenyl)-4-oxo-3,4-dihydro-2H-pyridine-1-carboxylic acid (4,5-difluoro-2-methyl-phenyl)-amide]"
2,8.155,"Cc1cc2ccn(CCO)c2cc1NC(=O)N1C=CC(=O)C[C@H]1c1ccc(F)cc1 [Compound 156, (S)-2-(4-Fluoro-phenyl)-4-oxo-3,4-dihydro-2H-pyridine-1-carboxylic acid [1-(2-hydroxy-ethyl)-5-methyl-1H-indol-6-yl]-amide]"
3,7.01,"Cc1ccc(NC(=O)N2C=CC(=O)C[C@H]2c2ccc(F)cc2)cc1C [Compound 158, (S)-2-(4-Fluoro-phenyl)-4-oxo-3,4-dihydro-2H-pyridine-1-carboxylic acid (3,4-dimethyl-phenyl)-amide]"
